Data published in article PMC7370299, “Inhibition of Ovarian Cancer Cell Spheroid Formation by Synthetic Peptides Derived from Nectin-4” (International Journal of Molecular Sciences, 2020).

Tests used:
NIH:OVCAR5 cells [1] = details: 150 µg/mL peptide N4-P10 or 2 µg/mL puromycin, 250 nM Cytotox Green, 72 h, quadruplicate
Description: As a positive control for cytotoxicity, 2 µg/mL puromycin was used.

NIH:OVCAR5 cells [2] = experiment: Real-time spheroid formation, round-bottom ultra-low attachment plates, IncuCyte Zoom time-lapse, CellProfiler area; format: cell-based, human; details: for effect on spheroid formation (spheroid size, time-lapse): 96-well round-bottom ultra-low attachment plates, IncuCyte Zoom, first 24 h, DMSO control; for inhibition of spheroid formation at 18 µg/mL: peptide 18 µg/mL; for spheroid contraction / compact spheroid formation, average spheroid area over time: quadruplicate; for cell-cell adhesion at early time points of spheroid formation: before ~6 h, time-lapse imaging
Description: (§1) Confluent monolayers of ovarian cancer cell lines (NIH:OVCAR5, N4-KD-VB9, or CAOV3) were detached from the tissue culture flasks using 0.05% Trypsin (ThermoFisher Scientific, Waltham, MA, USA) and resuspended at a concentration of 1.0 × 10^5 cells/mL in complete media. Each well of a 96-well round-bottom ultra-low attachment plate (Corning, Corning NY, USA) was seeded with 50 ul of the resulting suspension. In most cases, the experiments were conducted with eight technical replicates at each condition. The plates were then placed in the gantry of the IncuCyte® Zoom (Sartorius, Ann Arbor, MI, USA) live cell analysis system and incubated at 37 °C in 5% CO2 for 24–72 h, as indicated. Photographs were taken at ~15 min increments for a total of no less than 48 h for the NIH:OVCAR5 cell lines or up to 72 h for the CAOV3 cell line. The initial photographs (t = 0) were taken 10–25 min after the cells were plated, at which time the cells had gravitated to the bottom of the well and were initiating the cell–cell attachments. The resulting footage was analyzed to determine the change in the area of the spheroid aggregates over time. The images were binarized to black and white, and the sum of the area of the small aggregates (black objects) in pixels was determined via the CellProfiler^TM workflow described below. Each image was normalized to the same dimensions, so that the areas could be compared.
Experiments were then repeated using round-bottom ultra-low attachment plates in which the cells were added to the wells containing the peptides at a final concentration of 150 µg/mL. The plates were placed in the IncuCyte® Zoom instrument for 24-48 h of live cell imaging, as described above. Experiments with the peptides selected for further study were performed in triplicate, with 8–16 technical replicates at each treatment condition.
NIH:OVCAR5 cells were added to wells containing from 9 to 150 µg/mL of peptide N4-P10 or peptide N4-P10S, or DMSO control, and then the formation of spheroids was monitored via the IncuCyte® Zoom instrument. The resulting footage was analyzed with the CellProfiler^TM pipeline described below.
A simple four-step CellProfiler™ (open source, Broad Institute, www.cellprofiler.org) pipeline was used to delineate the biologically relevant image contents and to quantify the area of spheroids over time. As part of the CellProfiler™ workflow, cellular edges were enhanced using the Sobel method, the images were converted to binary via Otsu method thresholding, and the area of occupied pixels as a function of overall image size was recorded. The resulting values were exported for analysis and visualization in the R statistical programming language. The values were averaged and the mean with the standard error of the mean (SEM) was determined and graphed. Experiments were routinely performed with eight replicates for each condition, and repeated a minimum of two times on separate days. Since many photographs were taken during the course of each experiment (approximately every 15 min) and the SEM was very small, it is difficult to see the small error bars in the graphs. For this reason, the values for each experimental SEM were included in the figure legends.

recombinant Nectin-1 = details: ovarian cancer cell adhesion to recombinant Nectin-1, short-term binding assay, previous study ref 15; cited from earlier work
Description: In our previous study, peptides N4-P10 and N4-P22 both inhibited cell adhesion by approximately 50%; however, the inhibition of spheroid formation by these two peptides was more disparate, with peptide N4-P10 almost completely inhibiting spheroid formation. In contrast, ...

CAOV3 cells = experiment: Real-time spheroid formation, round-bottom ultra-low attachment plates, IncuCyte Zoom time-lapse, CellProfiler area; format: cell-based, human; details: peptide 150 µg/mL; for effect on spheroid formation of CAOV3 cells: round-bottom ultra-low attachment plates, 72 h, quadruplicate, DMSO control
Description: as §1
A simple four-step CellProfiler™ (open source, Broad Institute, www.cellprofiler.org) pipeline was used to delineate the biologically relevant image contents and to quantify the area of spheroids over time. As part of the CellProfiler™ workflow, cellular edges were enhanced using the Sobel method, the images were converted to binary via Otsu method thresholding, and the area of occupied pixels as a function of overall image size was recorded. The resulting values were exported for analysis and visualization in the R statistical programming language. The values were averaged and the mean with the standard error of the mean (SEM) was determined and graphed. […]

NIH:OVCAR5 cells [3] = experiment: Initial screening of Nectin-4 peptides for spheroid formation, flat-bottom ultra-low attachment plates, manual photographs; format: cell-based, human; details: peptide 150 µg/mL, 96-well flat-bottom ultra-low attachment plates, photographed at 24 and 48 h, 8 technical replicates, data not shown
Description: Twenty-one peptides of 14 amino acids in length encompassing the extracellular domain of Nectin-4 (Figure 2 and Table 1) were synthesized as previously described. The peptides were initially screened at a concentration of 150 µg/mL in 96-well flat-bottom ultra-low attachment plates to identify the section(s) of Nectin-4 that are active in ovarian cancer cell aggregation and spheroid formation. NIH:OVCAR5 cells and peptides were seeded into the plates and manually photographed at 24 and 48 h time points. […] However, the cells treated with the other 18 peptides produced spheroids that appeared to be similar in size to the untreated control cells.
For the initial screening of the twenty-one Nectin-4 peptides, 50 ul of the peptides at 300 µg/mL (for a final working concentration of 150 µg/mL peptide per well) in complete media were added to 96-well flat-bottom ultra-low attachment plates (Corning, Corning, NY, USA). DMSO was used as a negative control. Fifty microliters of NIH:OVCAR5 cells at a concentration of 1.0 × 10^5 cells/mL in complete media were added to each well. The plates were then incubated at 37 °C in 5% CO2 for 48 h, with photographs taken manually at 24 and 48 h on a Nikon® TE200 microscope. A single screening experiment was conducted with 8 technical replicates at each condition to determine which peptides had the most significant effect on spheroid formation.

[4] = peptide 150 µg/mL, 24 h, versus DMSO control

Row | Compound | cytotoxic effect (cell death, integrated fluorescence intensity) (NIH:OVCAR5 cells [1]) | effect on spheroid formation (spheroid size, time-lapse) (NIH:OVCAR5 cells [2]; peptide 150 µg/mL) | inhibition of cell adhesion to Nectin-1 (recombinant Nectin-1) | inhibition of spheroid formation at 18 µg/mL (NIH:OVCAR5 cells [2]; 24 h, versus DMSO control) | spheroid contraction / compact spheroid formation, average spheroid area over time (NIH:OVCAR5 cells [2]; [4]) | cell-cell adhesion at early time points of spheroid formation (NIH:OVCAR5 cells [2]; peptide 150 µg/mL) | effect on spheroid formation of CAOV3 cells (CAOV3 cells) | effect on formation of spheroids (initial screen) (NIH:OVCAR5 cells [3]) | also measured
1 | COc1ccc(C[C@H](N)C(=O)N[C@H]2[C@@H](O)[C@H](n3cnc4c(N(C)C)ncnc43)O[C@@H]2CO)cc1 [puromycin, reference compound] | essentially all died within 24 h |  |  |  |  |  |  |  | 
2 | EVKGTTSSRSFKHS [N4-P14, Nectin-4 extracellular domain peptide, AA 186-199] |  | no effect on spheroid formation |  |  |  |  |  |  | 
3 | QARLRLRVLVPPLP [N4-P10, Nectin-4 extracellular domain peptide, AA 138-151] | negligible | most dramatic effect on spheroid formation | approximately 50% | marginal effect of inhibiting spheroid formation | did not form compact spheroids | appeared to inhibit cell–cell adhesion | inhibited the spheroid formation of CAOV3 cells | significantly impeded the formation of spheroids | inhibition of spheroid formation at 37.5 to 150 µg/mL (NIH:OVCAR5 cells [2]; peptide 37.5 to 150 µg/mL, 24 h): almost complete inhibition of spheroid formation; size / packing of CAOV3 multicellular aggregates (CAOV3 cells; after 72 h of incubation, CellProfiler area): not as tightly packed as the spheroids that were formed in the presence of peptide N4-P10S or the DMSO control
4 | RPVQLALPRLVRPL [N4-P10S, scrambled version of peptide N4-P10 used as a control peptide, reference compound] |  |  |  | no effect compared to the DMSO control | visually and quantitatively similar to that of the untreated controls |  | formed aggregates over 24 h that contracted into more compact spheroids after 72 h |  | change in formation of spheroids at any concentration (NIH:OVCAR5 cells [2]; peptide 9-150 µg/mL, 24 h, versus DMSO control): no quantifiable change in the formation of spheroids compared with the control
5 | SGKQVDLVSASV [N4-P27, Nectin-4 peptide, AA 339-350, adjacent to membrane] |  | significant impact on the formation of spheroids | did not inhibit ovarian cancer cell adhesion to recombinant Nectin-1 |  |  |  |  | significantly impeded the formation of spheroids | inhibition of spheroid formation compared to the control (NIH:OVCAR5 cells [2]; peptide 150 µg/mL, spheroid area at 24 h): almost forty percent
6 | WTRLDGPLPSGVRV [N4-P22, Nectin-4 extracellular domain peptide, AA 282-295] |  | more modest inhibition of spheroid formation | approximately 50% |  |  | appeared to inhibit cell–cell adhesion |  | significantly impeded the formation of spheroids | 
